Assays:
Male Sprague-Dawley rats = test: Glycemia and insulinemia after oral administration in fasted rats; type: in vivo, rat
From the text: In normal animals (as in man), the consequence of the administration of insulinotropic compounds is a significant increase in the plasmatic level of insulin. This induced hyperinsulinemia induces a reduction in glycemia. This example studies the evolution of glycemia and of insulinemia following oral administration of the inventive compounds in rats: the insulinotropic action of the compounds in vivo should induce a significant decrease of glycemia.
Male Sprague-Dawley rats (300-320 g) (CERJ—Le Genest St Isle-France) were used in order to carry out this experiment. The rats were fed with a standard diet of granular material; they had free access to food and drink and were kept in individual, ventilated cages in a 12 hr/12 hr light/dark rhythm. The animals were deprived of food for 16 hours prior to the experiment.
The compound was suspended in an aqueous carboxymethylcellulose solution (Sigma C4888) at 1% containing 0.1% Tween80 (Sigma P8074). The animals of the control group received the vehicle alone. The treated animals received a single administration of the compound (the suspension was administered by gavage at the rate of 10 ml/kg). Each group was made up of 11 animals. A 1st blood sample was taken by puncturing the retro-orbital sinus of the animals under volatile isoflurane anaesthesia: this sample makes up the initial time of the experiment. The substance or the vehicle were immediately administered to the animals by gavage, and blood samples were taken over time.
The animals' glycemia was measured in real time using a glucometer (Glucotrend2-Roche Diagnostic-France). The insulinemias were measured using an ELISA kit (Insulin Elisa Kit—Crystal Chem. USA). The method used was of the ELISA type: plasmatic insulin was specifically bound to anti-insulin monoclonal antibodies immobilised on the microtitration plate; simultaneously, an anti-insulin polyclonal guinea pig antibody was added to the reaction. The revelation of the reaction was guaranteed by an antibody coupled to peroxidase. These antibodies bind specifically to the guinea pig's immunoglobulins. The production of oxidised chromogen causes an increase in absorbance in proportion to the quantity of insulin present in the sample.

[1] = molecular target: T1, ATP-dependent potassium channels (K+ATP) (Rattus norvegicus, UniProt Q09429); test: [3H]glibenclamide binding to ATP-dependent potassium channels of rat cerebral cortex; details: FIG. 2
T1 construct: the potassium channels derive from a rat's cerebral cortex; tissue CEREP; host or cells: rat cerebral cortex
T1 sequence (Q09429 whole entry): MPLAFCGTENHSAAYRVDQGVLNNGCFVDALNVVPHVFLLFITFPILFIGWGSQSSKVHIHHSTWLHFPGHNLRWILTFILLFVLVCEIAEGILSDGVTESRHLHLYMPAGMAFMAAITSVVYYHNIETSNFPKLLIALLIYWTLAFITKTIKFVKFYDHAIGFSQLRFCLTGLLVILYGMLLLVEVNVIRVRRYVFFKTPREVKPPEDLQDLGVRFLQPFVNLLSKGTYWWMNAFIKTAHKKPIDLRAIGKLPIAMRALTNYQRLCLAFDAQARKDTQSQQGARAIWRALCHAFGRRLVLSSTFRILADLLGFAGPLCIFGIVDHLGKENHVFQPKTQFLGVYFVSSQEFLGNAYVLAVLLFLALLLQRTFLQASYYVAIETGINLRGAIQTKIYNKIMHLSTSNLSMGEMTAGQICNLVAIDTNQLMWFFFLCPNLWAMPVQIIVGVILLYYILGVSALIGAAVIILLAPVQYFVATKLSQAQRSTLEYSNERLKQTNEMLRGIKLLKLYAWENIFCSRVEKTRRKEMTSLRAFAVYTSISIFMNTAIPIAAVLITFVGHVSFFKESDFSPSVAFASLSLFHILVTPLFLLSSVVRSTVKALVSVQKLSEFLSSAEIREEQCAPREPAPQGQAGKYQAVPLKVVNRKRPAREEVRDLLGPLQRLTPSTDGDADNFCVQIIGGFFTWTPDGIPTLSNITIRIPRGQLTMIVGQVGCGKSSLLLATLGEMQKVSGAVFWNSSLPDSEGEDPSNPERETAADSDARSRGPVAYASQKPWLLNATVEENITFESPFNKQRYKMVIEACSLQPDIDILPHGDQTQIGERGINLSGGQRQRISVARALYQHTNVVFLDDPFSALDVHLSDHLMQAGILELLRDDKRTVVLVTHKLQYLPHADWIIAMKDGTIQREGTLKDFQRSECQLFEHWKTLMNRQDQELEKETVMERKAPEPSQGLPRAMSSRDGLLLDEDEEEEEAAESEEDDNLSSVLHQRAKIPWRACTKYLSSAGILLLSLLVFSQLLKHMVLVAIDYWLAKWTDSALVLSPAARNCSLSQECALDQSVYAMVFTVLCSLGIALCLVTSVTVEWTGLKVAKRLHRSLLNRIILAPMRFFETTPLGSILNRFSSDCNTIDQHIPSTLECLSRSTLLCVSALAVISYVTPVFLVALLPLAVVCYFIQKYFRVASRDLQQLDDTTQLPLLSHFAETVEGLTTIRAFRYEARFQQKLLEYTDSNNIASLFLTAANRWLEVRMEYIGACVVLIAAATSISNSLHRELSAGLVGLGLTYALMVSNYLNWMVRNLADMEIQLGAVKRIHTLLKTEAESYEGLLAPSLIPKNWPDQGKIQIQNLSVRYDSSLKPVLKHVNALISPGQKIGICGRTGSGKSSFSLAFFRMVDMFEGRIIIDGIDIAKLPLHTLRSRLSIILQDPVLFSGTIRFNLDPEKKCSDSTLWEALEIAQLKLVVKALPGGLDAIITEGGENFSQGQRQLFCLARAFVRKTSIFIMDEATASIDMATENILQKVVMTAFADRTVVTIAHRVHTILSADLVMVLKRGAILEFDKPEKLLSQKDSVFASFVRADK
T1 sequence (P70673 whole entry partner): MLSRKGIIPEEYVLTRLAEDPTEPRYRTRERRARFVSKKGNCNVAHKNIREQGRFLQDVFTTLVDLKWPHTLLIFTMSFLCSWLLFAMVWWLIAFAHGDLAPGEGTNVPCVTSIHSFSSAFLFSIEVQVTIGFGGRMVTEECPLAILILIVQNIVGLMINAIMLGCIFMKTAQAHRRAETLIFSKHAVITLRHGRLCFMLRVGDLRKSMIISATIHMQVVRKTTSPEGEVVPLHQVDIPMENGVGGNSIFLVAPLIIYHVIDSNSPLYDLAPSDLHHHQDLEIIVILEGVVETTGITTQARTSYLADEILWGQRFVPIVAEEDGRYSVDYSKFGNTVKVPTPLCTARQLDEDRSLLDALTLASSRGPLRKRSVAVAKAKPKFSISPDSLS
Procedure, shortened: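 Rat cerebral cortex membranes incubated 1 h at 22° C with 0.1 nM [3H]glibenclamide; nonspecific binding defined with 1 μM unlabelled glibenclamide. Compounds tested at 3–300 nM; values are percent inhibition of specific binding.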

[2] = tested on: isolated human pancreatic islets; test: Insulin secretion by isolated human pancreatic islets; type: cell-based; details: 1 hour incubation
Protocol: Isolated islets of Langerhans were put together with compounds according to the invention. They were incubated for one hour, and then the supernatant was taken off. The insulin contained in the supernatant (which corresponds to the insulin secreted by the islets over 1 hr) was titrated. It was compared to the basal secretion of insulin, i.e. to the quantity of insulin secreted by the islets over 1 hour in the absence of a compound. The higher the induced insulin/basal insulin ratio, the stronger the insulinotropic potential of the compound.
This study was carried out in the cellular therapy of diabetes laboratory led by Professor Pattou (INSERM ERIT-M 0106, Faculty of medicine of Lille, France (59)). The protocols for the extraction of islets and culture are published (Riachy, Vandewalle et al. 2001). The islets were cultured in a CMRL1066 (Gibco BRL) medium containing 5.5 mmol/l glucose. They were put together with the compounds (+0.001% DMSO). The insulin secreted was measured after 1 hour incubation (titration of the supernatant after centrifugation and extraction as described in the reference) according to a radioimmunological titration method (BI-INSULIN IRMA kit, Sanofi Diagnostics Pasteur). Each condition was applied to 5 independent islets preparations, each containing 40 equivalent islets (40 IE). […]

CC(C)CC(NC(=O)Cc1ccc(OC(C)(C)C(=O)O)cc1)c1ccccc1N1CCCCC1 (stereo not drawn) [Compound 1, 2-[4-[1-(3-methyl-1-(2-(1-piperidinyl)phenyl)butyl)aminocarbonylmethyl]phenoxy]-2-methylpropanoic acid]
decrease in glycemia between T=0 and T=120 min (Male Sprague-Dawley rats; 50 mpk, oral, fasted rat): 48%
plasmatic insulin peak, time following administration (Male Sprague-Dawley rats; 50 mpk, oral, fasted rat): 15 min
hypoglycemia kinetics and amplitude compared with compound 52 (Male Sprague-Dawley rats; comparison of FIGS. 5a and 5c): faster and more intense
IC50 [1]: 14 nM
insulinotropic activity on human islets ([2]; 0.1 μM): not having any significant insulinotropic activity
insulin secreted in 1 hour versus non-treated islets ([2]; 1 μM): ~4 times
